In patent CN105663037A, “一种阿莫西林溶液剂及其制备方法和用途” (Chengdu Qiankun Veterinary Pharmaceutical Co Ltd, priority 2016, dated 2016):

Tests used:
[1] = cited from earlier work
[2] = in vivo, cited from earlier work
[3] = Selection of mixed solvent (Table 4); format: physicochemical

In the case of `CC1(C)S[C@@H]2[C@H](NC(=O)[C@H](N)c3ccc(O)cc3)C(=O)N2[C@H]1C(=O)O` [阿莫西林], the “stability under acidic conditions” value [1] is listed as “稳定”, the gastrointestinal absorption rate ([2]; po) is listed as 90% and the half-life [2] is listed as about 1.02 h. For the same compound, the “dissolution when amount of dimethyl sulfoxide is reduced” value ([3]; 25 g amoxicillin, less than 100 ml dimethyl sulfoxide) was “不能完全溶解” and the “volume of dimethyl sulfoxide required to dissolve 25 g amoxicillin as stable solution” value ([3]; from results of 2.2 and 2.3) was 100 mL.
